Results published in US9814758B2, “Inhibitors of apoptosis and uses thereof” (CENTRE NATIONAL DE LA RECHERCHE SCIENTIFIQUE-CNRS, priority 2010, dated 2017).
No end group written: not given here.

Experiments:
kidney graft = test: Cold ischemia/reperfusion injury during kidney transplantation; assay type: in vivo, rat; conditions: preliminary
Description: FIG. 17: Preliminary data on cold ischemia/reperfusion injury during kidney transplantation. Brain death and prolonged cold ischemia are major contributors to the poorer long-term outcome of transplants from deceased donor kidney transplants, with an even higher impact if expanded criteria donors (‘marginal organs’) are used. Targeting ischemia-reperfusion (IR) injury-related intragraft inflammation is an attractive concept to improve the outcome of those grafts. (A) Workflow of cold ischemia/reperfusion during kidney transplantation in rat. After a 24 h cold ischemia, the kidney graft was transplanted orthotopically into male LEW recipients using standard microsurgical techniques. Peptides were injected immediately after reperfusion in a single i.v injection at 1 mg/kg. Three days after transplantation, grafts were harvested for RT-PCR analysis (n=3). (B) Total RNA was reverse transcribed into cDNA and subjected to quantitative real-time RT-PCR utilizing the GENEAMP® 5700 Sequence Detection System (Applied Biosystems, Weiterstadt, Germany). The TAQMAN®-PCR reactions for ICAM-1, IFN-γ, TNF-α, interleukin (IL)-6 and bcl-2 (synthesized by Metabion, Martinsried, Germany) were performed in a final volume of 25 μl.

[1] = tested on: C57Bl6 mice, myocardial ischemia-reperfusion; test: Myocardial ischemia-reperfusion IR24h (40 min ischemia, 24 h reperfusion); assay type: in vivo, mouse; conditions: reperfusion prolonged from 1 hour to 24 hours
Description: FIG. 11: In vivo experimental protocol. C57Bl6 mice underwent a surgical protocol of myocardial ischemia-reperfusion (IR). The black box represents the period of ischemia to which the mice were submitted. Infarct size or cell death measurements were performed at the end of surgery for each protocol (indicated by ↑). IR60′: 40 minutes of Ischemia, 60 minutes of Reperfusion. IR24h: 40 minutes Ischemia and 24 hours Reperfusion.
FIG. 14: Cardioprotective effects of Tat-DAXXp (1 mg/kg-IV) in mice subjected to IR24h. Infarct size (in % of area at risk) and internucleosomal DNA fragmentation determined by ELISA were quantified in mice subjected to IR24H and treated with Tat, Tat-DAXXp or Tat-scrDAXXp (1 mg/kg) as well as with DAXXp (10 mg/kg) (IV injection 5 minutes before reperfusion). […]
FIG. 15: Dose response for Tat-DAXXp and DAXXp in mice subjected to IR24h. Area at risk and infarct size (in % of area at risk) were measured in mice subjected to IR24h and treated by Tat (1 mg/kg), Tat-DAXXp (0.1, 1 and 10 mg/kg) or DAXXp (0.1, 1 and 10 mg/kg) injected intravenously 5 minutes before reperfusion. […]
In a second step, the cardioprotective effects of DAXXp were evaluated in an in vivo model of myocardial ischemia-reperfusion. […]

[2] = 1 mg/kg single i.v. after reperfusion, kidney graft 3 days after transplantation, RT-PCR

Question: Which results are given for “GRKKRRQRRRPPQKKSRKEKKQTGSGPLG-NH2 [Tat-DAXXp, GRKKRRQRRRPPQ-KKSRKEKKQTGSGPLG-NH2]”?
Answer: mRNA expression of ICAM-1 (kidney graft; [2]): reduction in mRNA expression; mRNA expression of IFN-γ (kidney graft; [2]): reduction in mRNA expression; protection from ischemia-reperfusion injuries (kidney graft; 1 mg/kg, renal transplantation model (Rat)): able to protect from ischemia-reperfusion injuries; cardioprotective effects at prolonged reperfusion [1]: maintained
